Target: T1, KRAS-G12D (Homo sapiens, UniProt P01116, G12D)
T1 construct: endogenous in cells; host or cells: A-427 (ATCC), AGS, AsPc-1, Panc 04.03
Assay: KRAS-G12D degradation assay (Western Blot), A-427 cells
Assay type: cell-based
Settings: A427 cells, 24 h, class symbols; for Dmax: A-427
How it was run: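 Western blotting of lysates (5 μg protein) quantified KRAS against a β-actin reference after 24 h exposure to compound at final 0.03–3000 nM in 0.25% DMSO. Cells were A-427, AGS, AsPc-1 or Panc 04.03, all KRAS G12D, at 5×10^5/well. Degradation versus control yielded DC50 and Dmax.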

T1 sequence (P01116 1-188 isoform P01116-2 G12D): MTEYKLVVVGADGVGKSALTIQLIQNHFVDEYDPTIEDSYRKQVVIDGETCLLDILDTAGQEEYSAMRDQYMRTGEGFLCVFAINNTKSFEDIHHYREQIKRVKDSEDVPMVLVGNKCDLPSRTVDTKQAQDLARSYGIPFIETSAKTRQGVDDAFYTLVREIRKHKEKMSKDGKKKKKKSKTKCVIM

Molecule `CCc1c(F)ccc2cc(O)cc(-c3ncc4c(N5CC6CCC(C5)N6)nc(OCC5(CN6CCN(CCCC7CCN(C(=O)c8ccc(Cl)c(N9CCC(=O)NC9=O)c8)CC7)CC6)CC5)nc4c3F)c12` [Example 22, 1-(5-(4-(3-(4-((1-(((4-(3,8-diazabicyclo[3.2.1]octan-3-yl)-7-(8-ethyl-7-fluoro-3-hydroxynaphthalen-1-yl)-8-fluoropyrido[4,3-d]pyrimidin-2-yl)oxy)methyl)cyclopropyl)methyl)piperazin-1-yl)propyl)piperidine-1-carbonyl)-2-chlorophenyl)dihydropyrimidine-2,4(1H,3H)-dione] has a DC50 of no more than 0.05 µM and a Dmax of 50 to 80%.

In the case of `C#Cc1c(F)ccc2cc(O)cc(-c3ncc4c(N5CC6CCC(C5)N6)nc(OCC5(CN6CCN(CCC7CCN(C(=O)c8ccc(Cl)c(N9CCC(=O)NC9=O)c8)CC7)CC6)CC5)nc4c3F)c12` [Example 3, 1-(5-(4-(2-(4-((1-(((4-(3,8-diazabicyclo[3.2.1]octan-3-yl)-7-(8-ethynyl-7-fluoro-3-hydroxynaphthalen-1-yl)-8-fluoropyrido[4,3-d]pyrimidin-2-yl)oxy)methyl)cyclopropyl)methyl)piperazin-1-yl)ethyl)piperidine-1-carbonyl)-2-chlorophenyl)dihydropyrimidine-2,4(1H,3H)-dione], the DC50 was no more than 0.05 µM and the Dmax was 50 to 80%.

With `CCc1cccc2cc(O)cc(-c3ncc4c(N5CC6CCC(C5)N6)nc(OCC5(CN6CCN(CCCC7CCN(C(=O)c8ccc(Cl)c(N9CCC(=O)NC9=O)c8)CC7)CC6)CC5)nc4c3F)c12` [Example 19, 1-(5-(4-(3-(4-((1-(((4-(3,8-diazabicyclo[3.2.1]octan-3-yl)-7-(8-ethyl-3-hydroxynaphthalen-1-yl)-8-fluoropyrido[4,3-d]pyrimidin-2-yl)oxy)methyl)cyclopropyl)methyl)piperazin-1-yl)propyl)piperidine-1-carbonyl)-2-chlorophenyl)dihydropyrimidine-2,4(1H,3H)-dione] the DC50 was 0.05 to 0.1 µM and the Dmax was 80 to 100%.

`C#Cc1c(F)ccc2cc(O)cc(-c3ncc4c(N5CC6CCC(C5)N6)nc(OCC5(CN6CCN(CC7CCC8(CC7)CCN(C(=O)c7ccc(OC)c(N9CCC(=O)NC9=O)c7)CC8)CC6)CCC5)nc4c3F)c12` [Example 25, 1-(5-(9-((4-((1-(((4-(3,8-diazabicyclo[3.2.1]octan-3-yl)-7-(8-ethynyl-7-fluoro-3-hydroxynaphthalen-1-yl)-8-fluoropyrido[4,3-d]pyrimidin-2-yl)oxy)methyl)cyclobutyl)methyl)piperazin-1-yl)methyl)-3-azaspiro[5.5]undecane-3-carbonyl)-2-methoxyphenyl)dihydropyrimidine-2,4(1H,3H)-dione] was tested, and the DC50 was no more than 0.05 µM and the Dmax was 50 to 80%.

`Cc1ccc2[nH]ncc2c1-c1ncc2c(N3CC4CCC(C3)N4)nc(OCC3(CN4CCN(CC5CCC6(CC5)CCN(C(=O)c5ccc(Cl)c(N7CCC(=O)NC7=O)c5)CC6)CC4)CC3)nc2c1F` [Example 16, 1-(5-(9-((4-((1-(((4-(3,8-diazabicyclo[3.2.1]octan-3-yl)-8-fluoro-7-(5-methyl-1H-indazol-4-yl)pyrido[4,3-d]pyrimidin-2-yl)oxy)methyl)cyclopropyl)methyl)piperazin-1-yl)methyl)-3-azaspiro[5.5]undecane-3-carbonyl)-2-chlorophenyl)dihydropyrimidine-2,4(1H,3H)-dione] showed a DC50 of 1 to 10 µM and a Dmax of 30 to 50%.

Work on `C#Cc1c(F)ccc2cc(O)cc(-c3ncc4c(N5CC6CCC(C5)N6)nc(OCC5(CN6CCN(CCCC7CCN(C(=O)c8ccc(OC)c(N9CCC(=O)NC9=O)c8)CC7)CC6)CC5)nc4c3F)c12` [Example 8, 1-(5-(4-(3-(4-((1-(((4-(3,8-diazabicyclo[3.2.1]octan-3-yl)-7-(8-ethynyl-7-fluoro-3-hydroxynaphthalen-1-yl)-8-fluoropyrido[4,3-d]pyrimidin-2-yl)oxy)methyl)cyclopropyl)methyl)piperazin-1-yl)propyl)piperidine-1-carbonyl)-2-methoxyphenyl)dihydropyrimidine-2,4(1H,3H)-dione] yielded a DC50 of no more than 0.05 µM and a Dmax of 50 to 80%.

— patent publication US20260166159A1, “KRAS G12D DEGRADATION AGENT, AND PREPARATION METHOD AND USE THEREFOR” (LEADINGTAC PHARMACEUTICAL (SHAOXING) CO., LTD., priority 2022, published 2026)
